Results published in patent US8747890B2 (priority 2009, dated 2014).

What was measured:
[1] = human, whole blood, iv, 9 mg/m2
[2] = Extrapolation of blood Cmax to an 80 kg human after intravenous infusion; settings: 440 mg/M^2 one hour infusion

In the case of `COc1cc(C=CC(=O)CC(=O)C=Cc2ccc(O)c(OC)c2)ccc1O` [curcumin, 1,7-bis(4-hydroxy-3-methoxyphenyl)-1,6-heptadiene-3,5-dione], the Cmax [1] is reported as 3400 ng/mL and the “Cmax extrapolated to humans” value [2] is reported as 160000 ng/mL.
